In patent US20140004108A1, “Methods for Modulation of Autophagy Through the Modulation of Autophagy-Enhancing Gene Products” (HARVARD MEDICAL SCHOOL, priority 2009, published 2014):
Entries after “also recorded” stand apart in the source; their conditions may differ.

Tests used:
Type in all cases: cell-based, human
GRP78 and GRP94 = assay: In-cell-western of KDEL (GRP78/GRP94) expression, ER stress; details: H4 cells
Procedure: For quantitative analysis of mTORC1 signaling and induction of endoplasmic reticulum stress, in-cell-western analysis of rpS6 phosphorylation and KDEL (GRP78/GRP94) expression (‘KDEL’ disclosed as SEQ ID NO: 2), respectively, were performed. H4 cells were cultured in 384-well plates and fixed and counterstained as described for the LC3-GFP assay. Following imaging, the cells were permeabilized in PBS containing 0.2% Tx-100 and stained with ALEXA FLOUR®—680NHS-ester, a non-specific lysine reactive probe used to measure relative cell number, at 20 ng/mL for 15 minutes. Subsequently, the cells were washed with PBS containing 0.2% Tx-100 and incubated for 30 minutes in blocking buffer (LICOR® Blocking Buffer diluted 1:1 with PBS+0.2% Tx-100). Cells were then incubated overnight with a rabbit-anti-rpS6 phospho-235/236 (Cell Signaling Technologies), or mouse-anti-KDEL (Stressgen) antibody (‘KDEL’ disclosed as SEQ ID NO: 2) diluted 1:1000 in blocking buffer. […] The intensities of both, the rpS6 phospho-235/236 or KDEL staining (‘KDEL’ disclosed as SEQ ID NO: 2), and of NHS-ester staining were integrated, and the normalized phospho-S6 or KDEL score (‘KDEL’ disclosed as SEQ ID NO: 2) were calculated by dividing phospho-rpS6 or KDEL intensity (‘KDEL’ disclosed as SEQ ID NO: 2) by NHS-ester intensity. […]

[1] = system: H4 cells stably expressing LC3-GFP; assay: LC3-GFP translocation to autophagosomes, image-based autophagy assay; details: for autophagy as measured by LC3-GFP translocation: H4 LC3-GFP cells grown in serum-free medium, treated with cytokine
Procedure: (§1) H4 human neuroblastoma cells were cultured under standard tissue culture conditions in DMEM media supplemented with 10% normal calf serum, penicillin/streptomycin, sodium pyruvate (Invitrogen) and, where appropriate, 0.4-1.2 mg/mL G418. LC3-GFP and FYVE-dsRed H4 cells were generated as described in Zhang et al., PNAS, 102, 15545-15550 ([…]). To create a stable line expressing Lamp1, H4 cells were transfected with Lamp1-RFP plasmid using TRANSIT_LT1® transfection reagent (Mirus), followed by selection with 0.4 mg/mL G418. Bcl-2 expressing cell lines were created by infecting LC3-GFP and FYVE-dsRed H4 cells with pBabe-Bcl-2 retrovirus, followed by selection with 1 μg/mL puromycin.
(§2) For the cytokine assays, cells were seeded at 0.5×10^5 in full medium in either 24-well (western) or 96-well (LC3-GFP quantification) plates. After 24 hours, cells were washed in PBS and serum-free OPTIMEM™ medium (Invitrogen) was added along with the indicated growth factors and/or cytokines for an additional 24 hours. Growth factors and cytokines used include human TNFα (Cell Sciences), human LIF (GeneScript Corporation), human FGF2 (ProSpec), human IGF1 (ProSpec), human SDF1 (Prospec) and human CLCF1 (R&D Systems). To induce starvation, cells were cultured for 24 hours in full media, washed in PBS and cultured for additional 4 hours in HBSS media (Invitrogen).
(§3) For western blot analysis, lysosomal protease inhibitor E64d (Sigma) was added at a concentration of 10 μg/mL for the last 8-12 hours before cell lysis.
For the primary screens, an arrayed library of 21,121 siRNA pools covering the majority of the human genome were used (Dharmacon siARRAY™ siRNA library (Human Genome, G-005000-05), Thermo Fisher Scientific, Lafayette, Colo.). Each pool contained of 4 unique oligonucleotides targeting different sequences from the same gene. Each assay plate also included the following controls: non-targeting siRNA, mTOR siRNA, ATG5 siRNA and PLK1 siRNA (a transfection efficiency control). siRNAs were transiently transfected in triplicate into H4 cells stably expressing a LC3-GFP reporter at a final concentration of 40 nM using reverse transfection with the […]® reagent (Qiagen). […]® reagent was diluted 1:20 in DMEM and 8 μl of the mixture was added to wells of 384 well plates. The plates were centrifuged at 1,000 rpm, after which 2 μl of 1 μM arrayed siRNA pools were added to each well. After 30 minutes of incubation, 500 cells in 40 μl of media were added to the wells. Cells were incubated for 72 hours under standard culture conditions, counterstained with 0.5 μM Hoechst 33342 (Invitrogen) for 1 hour and fixed by addition of 30 μl of 8% paraformaldehyde. After 30 minutes, cells were washed 3 times with PBS prior to analysis.
For secondary screens, a siRNA library was used in which the 4 siRNAs of each siRNA pool were separated into individual wells. The cells were transfected and treated as in the primary screen, except that siRNAs were used at a final concentration of 30 nM (1.5 μL/well of 1 uM stock) and […]® reagent was diluted 1:30 in OPTIMEM™ (Invitrogen). The secondary screen transfections were done in 2 rounds: in the first one a 1:1 mixture of H4 cells stably expressing LC3-GFP with FYVE-dsRed was transfected in triplicate; in the second round a 1:1 mixture of H4 cells expressing LC3-GFP with Lamp1-RFP was transfected in duplicate. All tertiary characterization screens were done in duplicate using a mixture of LC3-GFP and FYVE-dsRed cells. Each assay plate included 10-12 wells of non-targeting siRNA as well as mTOR, ATG5, PLK1 and, depending on screen, Vps34 or SOD1 siRNA controls.
(§4) For high-throughput screens, cells were imaged on an automated CellWoRx microscope (Applied Precision) at 10× magnification using 2 wavelengths (350 nm to detect Hoechst, 488 nm to detect LC3-GFP) for the primary screens and 3 wavelengths (350 nm, 488 nm and 550 nm to detect Lamp1-RFP or FYVE-dsRed) for the secondary screens.

H4 cells = assay: Western blot of signalling phosphorylation (phospho-ERK1/2, RSK, Stat3, Akt, Foxo3a, S6K); details: for activating phosphorylation of Stat3: H4, 50 ng/mL LIF or CLCF1
Procedure: as §2
(§5) For western blots, cells were lysed in Lammeli sample buffer, resolved on a 10-12% SDS-PAGE gel and transferred to PVDF membrane. The following antibodies were used: LC3 (Novus), p62 (Pharmigen), phospho-S6K (Thr389), phospho-Akt (Ser473), phospho-Stat3 (Tyr705), RelA, Sod1, phospho-PTEN (Ser380/Thr382/383) (all Cell Signaling), Bcl-2 (Santa Cruz), all at 1:1000, phospho-S6 (Ser235/236) (Cell Signaling) and phospho-ERK 1/2 (Sigma) at 1:2000, tubulin (Sigma) at 1:5000. Where indicated, blots were quantified using NIH ImageJ64 software.

LC3 = assay: Western blot of autophagy markers (LC3 II, p62, Atg12-Atg5); details: for autophagy by LC3 western blot (LC3 II/tubulin ratio): 100 ng/mL IGF1, 50 ng/mL FGF2, LIF or CLCF1, 10 μg/mL E64d, with or without 50 nM rapamycin pre-treatment
Procedure: as §2, §3, §5

type III PI3 kinase = assay: FYVE-dsRed vesicle recruitment (PtdIns3P levels); details: FYVE-dsRed cells, 3MA 10 mM 8 hours or NAC
Procedure: as §1, §4

Molecule: tunicamycin [reference compound]
- levels of GRP78 and GRP94 (ER stress markers) (GRP78 and GRP94): dose-dependent up-regulation of GRP78 and GRP94
- autophagy after ER stress inducer ([1]; H4 cells): increase in autophagy

Molecule: LIF: human LIF (GeneScript Corporation); leukemia inhibitory factor
- autophagy as measured by LC3-GFP translocation [1]: significant down-regulation of autophagy
- activating phosphorylation of Stat3 (H4 cells): increased activating phosphorylation of Stat3
- autophagy by LC3 western blot (LC3 II/tubulin ratio) (LC3; H4, serum-free): able to suppress autophagy in the absence and presence of rapamycin

Molecule: FGF2: human FGF2 (ProSpec); fibroblast growth factor 2 (basic)
- autophagy as measured by LC3-GFP translocation [1]: significant down-regulation of autophagy
- phospho-ERK1/2 and phospho-RSK levels (H4 cells; H4, serum-free, 50 ng/mL FGF2): increased level of phospho-ERK1/2 and phospho-RSK
- autophagy by LC3 western blot (LC3 II/tubulin ratio) (LC3; H4, serum-free): able to suppress autophagy in the absence and presence of rapamycin

Molecule: O=c1[nH]c2ccccc2n1C1CCN(Cc2ccc(-c3nc4cc5[nH]cnc5cc4nc3-c3ccccc3)cc2)CC1 [Akt inhibitor VIII, reference compound]
- phosphorylation of Foxo3a and S6 kinase (H4 cells; IGF1-treated cells with Akt inhibitor VIII): attenuated phosphorylation of both Foxo3a and the mTORC1 target S6 kinase
- inhibition of autophagy by IGF1, effect of Akt inhibitor (LC3; 100 ng/mL IGF1, LC3 western): prevented inhibition of autophagy by IGF1

Molecule: SDF1: human SDF1 (Prospec); chemokine SDF1 (CXCL12)
- autophagy as measured by LC3-GFP translocation [1]: significant down-regulation of autophagy

Molecule: IGF1: human IGF1 (ProSpec); insulin-like growth factor 1
- autophagy as measured by LC3-GFP translocation [1]: significant down-regulation of autophagy
- phosphorylation of Akt and Foxo3a (H4 cells; in both the absence and presence of rapamycin, 100 ng/mL IGF1): increased
- autophagy by LC3 western blot (LC3 II/tubulin ratio) (LC3; H4, serum-free): able to suppress autophagy in the absence and presence of rapamycin

Molecule: N#CC(=C(/N)Sc1ccccc1N)/C(C#N)=C(/N)Sc1ccccc1N [UO126, reference compound]
- inhibition of autophagy by FGF2, effect of MEK inhibitor (LC3; H4, serum-free, 50 ng/mL FGF2, 10 μg/mL E64d, pre-treatment with UO126): attenuated inhibition of autophagy; also recorded: prevented

Molecule: CC(=O)N[C@@H](CS)C(=O)O [NAC, N-acetyl-L-cysteine, reference compound]
- Aβ-induced accumulation of PtdIns3P in presence of inhibitor or antioxidant (type III PI3 kinase): suppressed
- induction of autophagy caused by knock-down of Sod1 ([1]; H4 LC3-GFP, with antioxidant NAC 2.5 mM): significantly attenuated induction of autophagy

Molecule: TNFα
- autophagy (LC3-GFP), higher doses ([1]; H4 LC3-GFP cells in defined medium, higher doses of TNFα): up-regulation of autophagy
- autophagy (LC3-GFP), low doses ([1]; H4 LC3-GFP cells in defined medium, low doses of TNFα): down-regulation of autophagy
- p62 level by western blot (LC3; H4 cells, low levels of TNFα (5 ng/ml, FIG. 31B)): significant accumulation of p62

B1: CLCF1: human CLCF1 (R&D Systems); cardiotrophin-like cytokine factor 1 (protein, UniProt Q9UBD9 28-225, looked up)
Cardiotrophin-like cytokine …: LNRTGDPGPGPSIQKTYDLTRYLEHQLRSLAGTYLNYLGPPFNEPDFNPPRLGAETLPRATVDLEVWRSLNDKLRLTQNYEAYSHLLCYLRGLNRQAATAELRRSLAHFCTSLQGLLGSIAGVMAALGYPLPQPLPGTEPTWTPGPAHSDFLQKMDDFWLLKELQTWLWRSAKDFNRLKKKMQPPAAAVTLHLGAHGF
- autophagy as measured by LC3-GFP translocation [1]: significant down-regulation of autophagy
- activating phosphorylation of Stat3 (H4 cells): increased activating phosphorylation of Stat3
- autophagy by LC3 western blot (LC3 II/tubulin ratio) (LC3; H4, serum-free): able to suppress autophagy in the absence and presence of rapamycin
